Experimental data as given in PubChem BioAssay AID328 (DTP/NCI, 2004).
“And” between values parts separate entries of the source, which are not always exact repeats. Equal values may be shown once. Inconclusive results and toxic doses are left out. Rule for the calls: active = survival T/C of 150% or more; inactive = T/C below 125% in these data.

Test system: BDF1 mice, P388 leukemia ip, median survival T/C
Assay: NCI In Vivo Anticancer Drug Screen. Data for tumor model P388 Leukemia (intraperitoneal) in B6D2F1 (BDF1) mice
Conditions: endpoint: median survival time, higher = longer survival
How it was run: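 T/C = treated-group survival ÷ vehicle-control survival; tumour transplanted into mice before dosing.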

Measured: T/C

COC(C(=O)C(O)C(C)O)C1Cc2cc3cc(OC4CC(OC(C)=O)C(OC5CC(O)C(OC)C(C)O5)C(C)O4)cc(O)c3c(O)c2C(=O)C1OC1CC(OC2CC(OC3CC(C)(O)C(OC(=O)C(C)C)C(C)O3)C(O)C(C)O2)C(O)C(C)O1 (stereo unspecified)
inactive: dose: 0.05 mg/kg/injection, schedule: Q01DX010 (ip), vehicle: saline 113 % of control | dose: 0.1 mg/kg/injection, schedule: Q01DX010 (ip), vehicle: saline 90 % of control | dose: 0.25 mg/kg/injection, schedule: Q01DX009 (ip), vehicle: saline 111 % of control | dose: 0.37 mg/kg/injection, schedule: Q01DX009 (sc), vehicle: carboxymethylcellulose (CMC) 100 % of control | dose: 0.5 mg/kg/injection, schedule: Q01DX001 (ip), vehicle: other 104 % of control | dose: 0.5 mg/kg/injection, schedule: Q01DX009 (ip), vehicle: saline 94 % of control and 100 % of control | dose: 0.75 mg/kg/injection, schedule: Q01DX009 (sc), vehicle: carboxymethylcellulose (CMC) 100 % of control | dose: 1.0 mg/kg/injection, schedule: Q01DX001 (ip), vehicle: other 108 % of control | dose: 1.0 mg/kg/injection, schedule: Q01DX001 (sc), vehicle: carboxymethylcellulose (CMC) 100 % of control | dose: 1.0 mg/kg/injection, schedule: Q01DX009 (ip), vehicle: saline 111 % of control and 100 % of control | dose: 1.0 mg/kg/injection, schedule: Q## X024 (ip), vehicle: carboxymethylcellulose (CMC) 110 % of control | dose: 1.5 mg/kg/injection, schedule: Q01DX009 (oral), vehicle: carboxymethylcellulose (CMC) 100 % of control | dose: 1.5 mg/kg/injection, schedule: Q01DX009 (sc), vehicle: carboxymethylcellulose (CMC) 104 % of control | dose: 2.0 mg/kg/injection, schedule: Q01DX001 (ip), vehicle: other 116 % of control | dose: 2.0 mg/kg/injection, schedule: Q01DX001 (ip), vehicle: saline 116 % of control | dose: 2.0 mg/kg/injection, schedule: Q01DX001 (sc), vehicle: carboxymethylcellulose (CMC) 100 % of control | dose: 2.0 mg/kg/injection, schedule: Q01DX009 (ip), vehicle: saline 111 % of control | dose: 2.0 mg/kg/injection, schedule: Q## X024 (ip), vehicle: carboxymethylcellulose (CMC) 90 % of control | dose: 3.0 mg/kg/injection, schedule: Q01DX009 (ip), vehicle: carboxymethylcellulose (CMC) 95 % of control | dose: 3.0 mg/kg/injection, schedule: Q01DX009 (oral), vehicle: carboxymethylcellulose (CMC) 90 % of control | dose: 3.0 mg/kg/injection, schedule: Q01DX009 (sc), vehicle: carboxymethylcellulose (CMC) 100 % of control | dose: 3.2 mg/kg/injection, schedule: Q01DX010 (ip), vehicle: saline 114 % of control | dose: 4.0 mg/kg/injection, schedule: Q01DX001 (ip), vehicle: carboxymethylcellulose (CMC) 120 % of control | dose: 4.0 mg/kg/injection, schedule: Q01DX001 (ip), vehicle: other 116 % of control | dose: 4.0 mg/kg/injection, schedule: Q01DX001 (oral), vehicle: carboxymethylcellulose (CMC) 90 % of control | dose: 4.0 mg/kg/injection, schedule: Q01DX001 (sc), vehicle: carboxymethylcellulose (CMC) 100 % of control | dose: 4.0 mg/kg/injection, schedule: Q## X024 (ip), vehicle: carboxymethylcellulose (CMC) 100 % of control | dose: 6.0 mg/kg/injection, schedule: Q01DX009 (oral), vehicle: carboxymethylcellulose (CMC) 90 % of control | dose: 8.0 mg/kg/injection, schedule: Q01DX001 (oral), vehicle: carboxymethylcellulose (CMC) 90 % of control | dose: 8.0 mg/kg/injection, schedule: Q01DX001 (sc), vehicle: carboxymethylcellulose (CMC) 109 % of control | dose: 12.0 mg/kg/injection, schedule: Q01DX009 (oral), vehicle: carboxymethylcellulose (CMC) 100 % of control | dose: 16.0 mg/kg/injection, schedule: Q01DX001 (oral), vehicle: carboxymethylcellulose (CMC) 100 % of control | dose: 32.0 mg/kg/injection, schedule: Q01DX001 (oral), vehicle: carboxymethylcellulose (CMC) 90 % of control | dose: 25.0 micrograms/kg/injection, schedule: Q01DX010 (ip), vehicle: saline 100 % of control | dose: 50.0 micrograms/kg/injection, schedule: Q01DX010 (ip), vehicle: saline 122 % of control | dose: 62.5 micrograms/kg/injection, schedule: Q01DX010 (ip), vehicle: saline 109 % of control | dose: 125.0 micrograms/kg/injection, schedule: Q01DX010 (ip), vehicle: saline 109 % of control
active: dose: 0.2 mg/kg/injection, schedule: Q01DX010 (ip), vehicle: saline 154 % of control | dose: 0.25 mg/kg/injection, schedule: Q01DX009 (ip), vehicle: other 150 % of control | dose: 0.25 mg/kg/injection, schedule: Q01DX010 (ip), vehicle: saline 154 % of control and 172 % of control | dose: 0.36 mg/kg/injection, schedule: Q01DX005 (ip), vehicle: carboxymethylcellulose (CMC) 155 % of control | dose: 0.37 mg/kg/injection, schedule: Q01DX009 (ip), vehicle: carboxymethylcellulose (CMC) 155 % of control | dose: 0.38 mg/kg/injection, schedule: Q01DX010 (ip), vehicle: saline 177 % of control | dose: 0.4 mg/kg/injection, schedule: Q01DX010 (ip), vehicle: saline 157 % of control and 172 % of control | dose: 0.5 mg/kg/injection, schedule: Q01DX009 (ip), vehicle: other 162 % of control | dose: 0.5 mg/kg/injection, schedule: Q01DX010 (ip), vehicle: saline 190 % of control and 213 % of control | dose: 0.75 mg/kg/injection, schedule: Q01DX005 (ip), vehicle: carboxymethylcellulose (CMC) 165 % of control | dose: 0.75 mg/kg/injection, schedule: Q01DX009 (ip), vehicle: carboxymethylcellulose (CMC) 190 % of control | dose: 0.75 mg/kg/injection, schedule: Q01DX010 (ip), vehicle: saline 218 % of control | dose: 1.0 mg/kg/injection, schedule: Q01DX009 (ip), vehicle: other 179 % of control | dose: 1.0 mg/kg/injection, schedule: Q01DX010 (ip), vehicle: saline 240 % of control and 227 % of control and 195 % of control | dose: 1.0 mg/kg/injection, schedule: Q## X003 (ip), vehicle: carboxymethylcellulose (CMC) 165 % of control | dose: 1.0 mg/kg/injection, schedule: Q## X008 (ip), vehicle: carboxymethylcellulose (CMC) 155 % of control | dose: 1.5 mg/kg/injection, schedule: Q01DX005 (ip), vehicle: carboxymethylcellulose (CMC) 215 % of control | dose: 1.5 mg/kg/injection, schedule: Q01DX009 (ip), vehicle: carboxymethylcellulose (CMC) 235 % of control | dose: 1.5 mg/kg/injection, schedule: Q01DX010 (ip), vehicle: saline 195 % of control and 218 % of control | dose: 1.6 mg/kg/injection, schedule: Q01DX010 (ip), vehicle: saline 161 % of control | dose: 2.0 mg/kg/injection, schedule: Q01DX010 (ip), vehicle: saline 227 % of control | dose: 2.0 mg/kg/injection, schedule: Q## X003 (ip), vehicle: carboxymethylcellulose (CMC) 150 % of control | dose: 3.0 mg/kg/injection, schedule: Q01DX005 (ip), vehicle: carboxymethylcellulose (CMC) 260 % of control | dose: 4.0 mg/kg/injection, schedule: Q01DX009 (ip), vehicle: other 208 % of control | dose: 4.0 mg/kg/injection, schedule: Q## X008 (ip), vehicle: carboxymethylcellulose (CMC) 155 % of control | dose: 200.0 micrograms/kg/injection, schedule: Q01DX010 (ip), vehicle: saline 154 % of control | dose: 400.0 micrograms/kg/injection, schedule: Q01DX010 (ip), vehicle: saline 154 % of control | dose: 500.0 micrograms/kg/injection, schedule: Q01DX010 (ip), vehicle: saline 209 % of control | dose: 800.0 micrograms/kg/injection, schedule: Q01DX010 (ip), vehicle: saline 181 % of control
